Values of other authors, collected in patent US11419835B2, “Method of treatment and prevention of bacterial vaginosis” (EVOFEM, INC., priority 2016, dated 2022).

Tested on: HIV
Settings: compared with D or racemic lactic acid

For C[C@H](O)C(=O)O [L-lactic acid, L-(+)-lactic acid], the “potency in inactivating HIV” value is listed as “more potent in inactivating HIV than D or racemic lactic acid”.
